Data taken from ChEMBL document CHEMBL1909046, “DrugMatrix in vitro pharmacology data”.

What was measured:
[1] = biological target: Melanocortin receptor 5 (Homo sapiens, UniProt P33032); type: cell membranes, Membrane; details: hek293; also: in other assays of this panel Not Active means under 50% inhibition at 10 µM
[2] = biological target: Beta-1 adrenergic receptor (Homo sapiens, UniProt P08588); assay: DRUGMATRIX: Adrenergic beta1 radioligand binding (ligand: [125I] Cyanopindolol); type: cell membranes, CHO-K1, Membrane; details: cho-k1; Not Active = under 50% inhibition at 10 µM
[3] = biological target: Cannabinoid receptor 1 (Homo sapiens, UniProt P21554); type: cell membranes, Chem-1, Membrane; also: in other assays of this panel Not Active means under 50% inhibition at 10 µM
[4] = biological target: T1, Alpha-2A adrenergic receptor (Homo sapiens, UniProt P08913); type: cell membranes, Sf9, Membrane; details: sf9; also: in other assays of this panel Not Active means under 50% inhibition at 10 µM
T1 sequence (P08913 whole entry): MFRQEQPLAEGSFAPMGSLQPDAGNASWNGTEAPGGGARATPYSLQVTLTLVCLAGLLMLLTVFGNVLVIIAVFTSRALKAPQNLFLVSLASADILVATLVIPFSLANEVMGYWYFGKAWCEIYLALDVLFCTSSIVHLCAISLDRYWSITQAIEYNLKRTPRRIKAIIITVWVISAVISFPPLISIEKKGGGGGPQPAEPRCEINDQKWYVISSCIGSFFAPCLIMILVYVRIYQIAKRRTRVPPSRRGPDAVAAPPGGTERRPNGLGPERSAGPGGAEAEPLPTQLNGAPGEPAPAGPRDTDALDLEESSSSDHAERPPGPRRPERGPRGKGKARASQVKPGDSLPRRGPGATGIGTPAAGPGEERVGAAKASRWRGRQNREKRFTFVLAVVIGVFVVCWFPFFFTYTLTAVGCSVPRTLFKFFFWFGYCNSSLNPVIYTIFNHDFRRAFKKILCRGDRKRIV

[5] = biological target: T2, Alpha-1B adrenergic receptor (Rattus norvegicus, UniProt P15823); assay: DRUGMATRIX: Alpha-1B adrenergic receptor radioligand binding (ligand: prazosin); type: cell membranes, Wistar, Liver, Membrane; details: Not Active = under 50% inhibition at 10 µM
T2 sequence (P15823 whole entry): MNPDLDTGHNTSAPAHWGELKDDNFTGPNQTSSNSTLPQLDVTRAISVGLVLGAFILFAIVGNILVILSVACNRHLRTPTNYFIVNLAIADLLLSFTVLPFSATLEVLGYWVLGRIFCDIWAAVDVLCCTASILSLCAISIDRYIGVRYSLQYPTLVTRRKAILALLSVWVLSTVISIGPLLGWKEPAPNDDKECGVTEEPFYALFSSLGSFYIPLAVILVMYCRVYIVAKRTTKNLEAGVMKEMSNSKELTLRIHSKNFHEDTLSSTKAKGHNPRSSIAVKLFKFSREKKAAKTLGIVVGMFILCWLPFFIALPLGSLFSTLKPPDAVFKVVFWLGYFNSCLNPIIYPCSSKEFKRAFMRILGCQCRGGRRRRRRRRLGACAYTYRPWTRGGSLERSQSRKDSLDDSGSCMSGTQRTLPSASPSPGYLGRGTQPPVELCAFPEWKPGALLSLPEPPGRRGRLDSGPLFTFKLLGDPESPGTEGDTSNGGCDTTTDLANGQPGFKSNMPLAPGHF

[6] = biological target: 5-hydroxytryptamine receptor 2B (Homo sapiens, UniProt P41595); type: cell membranes, CHO-K1, Membrane; also: in other assays of this panel Not Active means under 50% inhibition at 10 µM
Sequence of 5-hydroxytryptamine receptor 2B (P41595 whole entry): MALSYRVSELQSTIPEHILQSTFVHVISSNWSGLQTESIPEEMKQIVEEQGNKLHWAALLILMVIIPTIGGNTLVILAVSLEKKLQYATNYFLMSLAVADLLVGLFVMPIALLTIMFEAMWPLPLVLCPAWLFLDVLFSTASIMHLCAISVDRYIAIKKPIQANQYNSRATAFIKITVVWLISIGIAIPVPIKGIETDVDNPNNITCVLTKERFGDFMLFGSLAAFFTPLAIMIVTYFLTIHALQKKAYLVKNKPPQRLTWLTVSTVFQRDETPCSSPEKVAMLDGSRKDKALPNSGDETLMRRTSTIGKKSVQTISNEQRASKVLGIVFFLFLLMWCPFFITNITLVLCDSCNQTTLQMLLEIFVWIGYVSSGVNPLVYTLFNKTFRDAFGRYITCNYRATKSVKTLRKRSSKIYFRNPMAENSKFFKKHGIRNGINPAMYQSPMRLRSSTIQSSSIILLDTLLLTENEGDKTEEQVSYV

Sequence of Melanocortin receptor 5 (P33032 whole entry): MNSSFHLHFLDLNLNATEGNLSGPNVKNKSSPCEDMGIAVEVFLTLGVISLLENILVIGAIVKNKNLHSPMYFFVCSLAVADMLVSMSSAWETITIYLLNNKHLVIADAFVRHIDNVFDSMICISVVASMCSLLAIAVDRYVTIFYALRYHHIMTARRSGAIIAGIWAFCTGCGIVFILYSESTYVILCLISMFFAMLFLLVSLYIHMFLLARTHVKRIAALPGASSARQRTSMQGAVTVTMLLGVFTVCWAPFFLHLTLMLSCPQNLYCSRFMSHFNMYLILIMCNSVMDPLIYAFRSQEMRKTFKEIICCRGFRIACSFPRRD
Sequence of Cannabinoid receptor 1 (P21554 whole entry): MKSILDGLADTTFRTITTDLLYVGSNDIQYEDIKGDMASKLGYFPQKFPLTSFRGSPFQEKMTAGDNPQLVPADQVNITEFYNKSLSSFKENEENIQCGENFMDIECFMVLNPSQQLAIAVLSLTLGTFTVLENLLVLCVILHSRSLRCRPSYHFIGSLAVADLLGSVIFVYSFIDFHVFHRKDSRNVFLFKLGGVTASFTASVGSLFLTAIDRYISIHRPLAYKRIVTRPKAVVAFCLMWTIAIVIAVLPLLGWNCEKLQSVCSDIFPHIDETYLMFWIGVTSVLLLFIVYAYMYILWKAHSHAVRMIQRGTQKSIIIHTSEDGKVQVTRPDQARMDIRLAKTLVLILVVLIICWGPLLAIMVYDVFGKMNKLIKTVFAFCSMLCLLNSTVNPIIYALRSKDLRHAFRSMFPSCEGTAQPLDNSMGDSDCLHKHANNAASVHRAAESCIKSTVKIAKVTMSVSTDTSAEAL
Sequence of Beta-1 adrenergic receptor (P08588 whole entry): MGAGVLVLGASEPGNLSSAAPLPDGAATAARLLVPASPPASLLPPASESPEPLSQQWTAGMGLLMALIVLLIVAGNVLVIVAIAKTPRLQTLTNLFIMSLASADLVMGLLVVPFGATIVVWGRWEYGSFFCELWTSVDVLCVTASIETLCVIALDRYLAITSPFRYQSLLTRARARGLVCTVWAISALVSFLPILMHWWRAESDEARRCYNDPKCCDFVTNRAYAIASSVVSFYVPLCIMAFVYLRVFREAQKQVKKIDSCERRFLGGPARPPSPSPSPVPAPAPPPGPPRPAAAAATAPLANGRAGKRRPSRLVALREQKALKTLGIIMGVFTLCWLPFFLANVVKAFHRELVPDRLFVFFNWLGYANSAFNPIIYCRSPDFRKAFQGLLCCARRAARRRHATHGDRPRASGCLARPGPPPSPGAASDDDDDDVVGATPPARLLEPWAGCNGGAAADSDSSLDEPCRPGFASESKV

Row | SMILES | IC50 [1] | IC50 [2] | IC50 ([3]; chem-1) | IC50 [4] | IC50 [5] | IC50 ([6]; cho-k1) | IC50 ([6]; read-out: IC50) [µM] | Ki ([6]; read-out: Ki) [µM] | IC50 ([3]; read-out: IC50) [µM] | Ki ([3]; read-out: Ki) [µM]
1 | COc1ccc2c(c1)[C@]13CCCC[C@@H]1[C@H](C2)N(C)CC3 [DEXTROMETHORPHAN] | Not Active | Not Active | Not Active | Not Active | Not Active | Not Active | – | – | – | –
2 | CC(=O)Nc1c(I)c(NC(C)=O)c(I)c(C(=O)O)c1I [DIATRIZOIC ACID] | Not Active | Not Active | Not Active | Not Active | Not Active | Not Active | – | – | – | –
3 | COP(=O)(OC)OC=C(Cl)Cl [DICHLORVOS] | Not Active | Not Active | Not Active | Not Active | Not Active | Not Active | – | – | – | –
4 | O=C(O)Cc1ccccc1Nc1c(Cl)cccc1Cl [DICLOFENAC] | Not Active | Not Active | Not Active | Not Active | Not Active | Not Active | – | – | – | –
5 | C[C@H]1O[C@@H](O[C@H]2[C@@H](O)C[C@H](O[C@H]3[C@@H](O)C[C@H](O[C@H]4CC[C@@]5(C)[C@H](CC[C@@H]6[C@@H]5CC[C@]5(C)[C@@H](C7=CC(=O)OC7)CC[C@]65O)C4)O[C@@H]3C)O[C@@H]2C)C[C@H](O)[C@@H]1O [DIGITOXIN] | Not Active | Not Active | Not Active | Not Active | Not Active | Not Active | – | – | – | –
6 | CCN1CC(CCN2CCOCC2)C(c2ccccc2)(c2ccccc2)C1=O (centres undefined) [DOXAPRAM] | Not Active | Not Active | Not Active | Not Active | Not Active | Not Active | – | – | – | –
7 | Cn1c(=O)c2c(ncn2CC2OCCO2)n(C)c1=O [DOXOFYLLINE] | Not Active | Not Active | Not Active | Not Active | Not Active | Not Active | – | – | – | –
8 | COc1cccc2c1C(=O)c1c(O)c3c(c(O)c1C2=O)C[C@@](O)(C(=O)CO)C[C@@H]3O[C@H]1C[C@H](N)[C@H](O)[C@H](C)O1 [DOXORUBICIN] | Not Active | Not Active | Not Active | Not Active | Not Active | Not Active | – | – | – | –
9 | COc1cccc2c1C(=O)c1c(O)c3c(c(O)c1C2=O)C[C@@](O)(C(=O)CO)C[C@@H]3O[C@H]1C[C@H](N)[C@@H](O)[C@H](C)O1 [EPIRUBICIN] | Not Active | Not Active | Not Active | Not Active | Not Active | Not Active | – | – | – | –
10 | C[C@]12CC[C@@H]3c4ccc(OC(=O)c5ccccc5)cc4CC[C@H]3[C@@H]1CC[C@@H]2O [ESTRADIOL BENZOATE] | Not Active | Not Active | Not Active | Not Active | Not Active | – | 11.6 | 7.36 | – | –
11 | C[C@]12CC[C@@H]3c4ccc(O)cc4CC[C@H]3[C@@H]1CC[C@@H]2O [ESTRADIOL] | Not Active | Not Active | Not Active | Not Active | Not Active | Not Active | – | – | – | –
12 | CC[C@@H](CO)NCCN[C@@H](CC)CO [ETHAMBUTOL] | Not Active | Not Active | Not Active | Not Active | Not Active | Not Active | – | – | – | –
13 | CC1(C)O[C@@H]2C[C@H]3[C@@H]4C[C@H](F)C5=CC(=O)C=C[C@]5(C)[C@H]4[C@@H](O)C[C@]3(C)[C@]2(C(=O)CO)O1 [FLUNISOLIDE] | Not Active | Not Active | Not Active | Not Active | Not Active | Not Active | – | – | – | –
14 | CC1(C)O[C@@H]2C[C@H]3[C@@H]4C[C@H](F)C5=CC(=O)C=C[C@]5(C)[C@@]4(F)[C@@H](O)C[C@]3(C)[C@]2(C(=O)CO)O1 [FLUOCINOLONE ACETONIDE] | Not Active | Not Active | Not Active | Not Active | Not Active | Not Active | – | – | – | –
15 | CC1(C)O[C@@H]2C[C@H]3[C@@H]4C[C@H](F)C5=CC(=O)CC[C@]5(C)[C@H]4[C@@H](O)C[C@]3(C)[C@]2(C(=O)CO)O1 [FLURANDRENOLIDE] | Not Active | Not Active | Not Active | Not Active | Not Active | Not Active | – | – | – | –
16 | Cc1ccc(S(=O)(=O)NC(=O)NN2CC3CCCC3C2)cc1 (centres undefined) [GLICLAZIDE] | Not Active | Not Active | Not Active | Not Active | Not Active | Not Active | – | – | – | –

Row | SMILES | IC50 [1] | IC50 [2] | IC50 ([3]; chem-1) | IC50 [4] | IC50 [5] | IC50 ([6]; cho-k1) | IC50 ([6]; read-out: IC50) [µM] | Ki ([6]; read-out: Ki) [µM] | IC50 ([3]; read-out: IC50) [µM] | Ki ([3]; read-out: Ki) [µM]
17 | NC(=O)NO [HYDROXYUREA] | Not Active | Not Active | Not Active | Not Active | Not Active | Not Active | – | – | – | –
18 | CC(C)Cc1ccc(C(C)C(=O)O)cc1 (centres undefined) [IBUPROFEN] | Not Active | Not Active | Not Active | Not Active | Not Active | Not Active | – | – | – | –
19 | COc1ccc2c(c1)c(CC(=O)O)c(C)n2C(=O)c1ccc(Cl)cc1 [INDOMETHACIN] | Not Active | Not Active | Not Active | Not Active | Not Active | Not Active | – | – | – | –
20 | CCc1c2c(nc3ccc(OC(=O)N4CCC(N5CCCCC5)CC4)cc13)-c1cc3c(c(=O)n1C2)COC(=O)[C@]3(O)CC [IRINOTECAN] | Not Active | Not Active | Not Active | Not Active | Not Active | Not Active | – | – | – | –
21 | CC(C(=O)O)c1cccc(C(=O)c2ccccc2)c1 (centres undefined) [KETOPROFEN] | Not Active | Not Active | Not Active | Not Active | Not Active | Not Active | – | – | – | –
22 | Nc1ccn([C@@H]2CS[C@H](CO)O2)c(=O)n1 [LAMIVUDINE] | Not Active | Not Active | Not Active | Not Active | Not Active | Not Active | – | – | – | –
23 | O=S(=O)([O-])CCS.[Na+] [MESNA] | Not Active | Not Active | Not Active | Not Active | Not Active | Not Active | – | – | – | –
24 | C#C[C@]1(O)CC[C@H]2[C@@H]3CCc4cc(OC)ccc4[C@H]3CC[C@@]21C [MESTRANOL] | Not Active | Not Active | – | Not Active | Not Active | Not Active | – | – | 28.5 | 22.5
25 | CC(=O)Nc1cccc(O)c1 [METACETAMOL] | Not Active | Not Active | Not Active | Not Active | Not Active | Not Active | – | – | – | –
26 | Cc1ncc([N+](=O)[O-])n1CCO [METRONIDAZOLE] | Not Active | Not Active | Not Active | Not Active | Not Active | Not Active | – | – | – | –
27 | CC(C)(C(=O)c1cccnc1)c1cccnc1 [METYRAPONE] | Not Active | Not Active | Not Active | Not Active | Not Active | Not Active | – | – | – | –
28 | Oc1ccc(OCc2ccccc2)cc1 [MONOBENZONE] | Not Active | Not Active | Not Active | Not Active | Not Active | Not Active | – | – | – | –
29 | CC(C)(Oc1ccc(C2CCCc3ccccc32)cc1)C(=O)O (centres undefined) [NAFENOPIN] | Not Active | Not Active | Not Active | Not Active | Not Active | Not Active | – | – | – | –
30 | COc1ccc2cc([C@H](C)C(=O)O)ccc2c1 [NAPROXEN] | Not Active | Not Active | Not Active | Not Active | Not Active | Not Active | – | – | – | –
31 | CC(C)[C@H]1CC[C@H](C(=O)N[C@H](Cc2ccccc2)C(=O)O)CC1 [NATEGLINIDE] | Not Active | Not Active | Not Active | Not Active | Not Active | Not Active | – | – | – | –
32 | CCN[C@@H]1C[C@H](N)[C@@H](O[C@H]2OC(CN)=CC[C@H]2N)[C@H](O)[C@H]1O[C@H]1OC[C@](C)(O)[C@H](NC)[C@H]1O [NETILMICIN] | Not Active | Not Active | Not Active | Not Active | Not Active | Not Active | – | – | – | –
